Data published in patent US12624018B1, “Inhibitors of RIPK2 and medical uses thereof” (Odyssey Therapeutics, Inc., priority 2022, dated 2026).
Where two headings read alike, the source gives them in different places.

Biological target: T1, RIPK2 enzyme (Homo sapiens, UniProt O43353)
T1 construct: purchased Carna 09-128
Experiment: RIPK2 inhibition (ADP-Glo Kinase Assay)
Assay type: biochemical
Settings: RIPK2 5 nM, ATP 150 μM, MBP substrate
Procedure, shortened: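 Human RIPK2 (5 nM) preincubated with compound 30 min at room temperature in 50 mM HEPES pH 7.5, 10 mM MgCl2, 2 mM DTT, 1 mM EGTA, 0.01% Brij-35, 0.05% BSA; native swine MBP as substrate. ADP formed quantified by ADP-Glo luminescence; percent inhibition relative to DMSO and no-enzyme controls.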

T1 sequence (O43353 1-299 limits assumed): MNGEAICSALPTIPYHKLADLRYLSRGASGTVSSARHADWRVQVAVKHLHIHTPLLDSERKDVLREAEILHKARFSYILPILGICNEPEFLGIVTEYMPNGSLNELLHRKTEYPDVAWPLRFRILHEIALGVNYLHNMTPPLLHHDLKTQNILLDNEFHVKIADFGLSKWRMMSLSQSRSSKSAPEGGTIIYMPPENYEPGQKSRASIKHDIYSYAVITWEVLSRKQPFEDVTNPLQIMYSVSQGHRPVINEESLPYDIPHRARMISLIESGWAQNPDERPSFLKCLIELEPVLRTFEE

SMILES | IC50 (read-out: RIPK2 IC50) | IC50 (RIPK2 IC50 (nM))
CC(C)(C)c1cc(NC(=O)Cc2ncc(Oc3ccnc4ccc(OC5CCNCC5)cc34)cc2F)n[nH]1 [Compound 135, N-(5-(tert-butyl)-1H-pyrazol-3-yl)-2-(3-fluoro-5-((6-(piperidin-4-yloxy)quinolin-4-yl)oxy)pyridin-2-yl)acetamide] | < 2.5 nM | –
Cc1cc(CC(=O)Nc2cnn(C(C)(C)C)c2)ccc1Oc1ccnc2ccc(S(=O)(=O)C3CC(O)C3)cc12 (centres unmarked) [Compound 281, N-(1-(tert-butyl)-1H-pyrazol-4-yl)-2-(4-((6-((-3-hydroxycyclobutyl)sulfonyl)quinolin-4-yl)oxy)-3-methylphenyl)acetamide] | < 2.5 nM | –
Cc1c(Oc2ccnc3ccc(C(=O)N4CC(O)C4)cc23)ccc(CC(=O)Nc2cnn(C(C)(C)C)c2)c1F [Compound 348, N-(1-(tert-butyl)-1H-pyrazol-4-yl)-2-(2-fluoro-4-((6-(3-hydroxy-azetidine-1-carbonyl)quinolin-4-yl)oxy)-3-methyl-phenyl) acetamide] | < 2.5 nM | –
Cc1nc(NC(=O)Cc2ncc(Oc3ncnc4ccc(F)cc34)cc2F)cc(C(C)(C)C)n1 [Compound 53, N-(6-(tert-butyl)-2-methylpyrimidin-4-yl)-2-(3-fluoro-5-((6-fluoroquinazolin-4-yl)oxy)pyridin-2-yl)acetamide] | 225 nM | –
Cc1cc(CC(=O)Nc2cnn(C(C)(C)C)c2)ccc1Oc1ccnc2ccc(OC3CCN(CC(F)F)CC3)cc12 [Compound 120, N-(1-(tert-butyl)-1H-pyrazol-4-yl)-2-(4-((6-((1-(2,2-difluoroethyl)piperidin-4-yl)oxy)quinolin-4-yl)oxy)-3-methylphenyl) acetamide] | < 2.5 nM | –
[2H]C([2H])([2H])N1CCC(Oc2ccc3nccc(Oc4cnc(CC(=O)Nc5cnn(C(C)(C)C)c5)c(F)c4)c3c2)CC1 [Compound 129, N-(1-(tert-butyl)-1H-pyrazol-4-yl)-2-(3-fluoro-5-((6-((1-(methyl-d3)piperidin-4-yl)oxy)quinolin-4-yl)oxy)pyridin-2-yl) acetamide] | 4.4 nM | –
CC(C)(C)n1cc(NC(=O)Cc2ccc(Oc3ccnc4ccc(S(C)(=O)=O)cc34)c(F)c2)cn1 [Compound 163, N-(1-(tert-butyl)-1H-pyrazol-4-yl)-2-(3-fluoro-4-((6-(methylsulfonyl)quinolin-4-yl)oxy)phenyl)acetamide] | < 2.5 nM | –
CCS(=O)(=O)c1ccc2nccc(Oc3ccc(CC(=O)Nc4cnn(C(C)(C)C)c4)c(F)c3)c2c1 [Compound 130, N-(1-(tert-butyl)-1H-pyrazol-4-yl)-2-(4-((6-(ethylsulfonyl)quinolin-4-yl)oxy)-2-fluorophenyl)acetamide] | < 2.5 nM | –
Cc1cc(CC(=O)Nc2cnn(C(C)(C)C)c2)ccc1Oc1ccnc2ccc(S(=O)(=O)CC3CNC3)cc12 [Compound 332, 2-(4-((6-((azetidin-3-ylmethyl)sulfonyl)quinolin-4-yl)oxy)-3-methylphenyl)-N-(1-(tert-butyl)-1H-pyrazol-4-yl)acetamide] | < 2.5 nM | –
Cc1cc(CC(=O)Nc2cnn(C(C)(C)C)c2)ccc1Oc1ccnc2ccc(OC3CCNCC3C)cc12 (racemic) [Compound 188, N-(1-(tert-butyl)-1H-pyrazol-4-yl)-2-(3-methyl-4-((6-((-3-methyl-piperidin-4-yl)oxy)quinolin-4-yl)oxy)phenyl) acetamide] | < 2.5 nM | –
CC(C)(C)n1cc(NC(=O)Cc2ccc(Oc3ccnc4ccc(S(C)(=N)=O)cc34)cc2F)cn1 (single isomer, unassigned) [Compound 70, N-(1-(tert-butyl)-1H-pyrazol-4-yl)-2-(2-fluoro-4-((6-(S-methylsulfonimidoyl)quinolin-4-yl)oxy)phenyl)acetamide] | 5.1 nM | –
Cc1cc(CC(=O)Nc2cc(C(C)(C)C)n[nH]2)ccc1Oc1ccnc2ccc(S(C)(=N)=O)cc12 (centres unmarked) [Compound 88, N-(5-(tert-butyl)-1H-pyrazol-3-yl)-2-(3-methyl-4-((6-(S-methylsulfonimidoyl)quinolin-4-yl)oxy)phenyl)acetamide] | < 2.5 nM | –
Cc1cc(CC(=O)Nc2cnn(C(C)(C)C)c2)ccc1Oc1ccnc2ccc(S(=O)(=O)C(C)C)cc12 [Compound 206, N-(1-(tert-butyl)-1H-pyrazol-4-yl)-2-(4-((6-(isopropylsulfonyl)quinolin-4-yl)oxy)-3-methylphenyl)acetamide] | < 2.5 nM | –
CCS(=O)(=NC)c1ccc2nccc(Oc3ccc(CC(=O)Nc4cnn(C(C)(C)C)c4)c(F)c3)c2c1 (centres unmarked) [Compound 74, N-(1-(tert-butyl)-1H-pyrazol-4-yl)-2-(2-fluoro-4-((6-(N-methylethylsulfonimidoyl)quinolin-4-yl)oxy)phenyl)acetamide] | 4 nM | –
COC(C)(C)c1ccc2nccc(Oc3cnc(CC(=O)Nc4cnn(C(C)(C)C)c4)c(F)c3)c2c1 [Compound 138, N-(1-(tert-butyl)-1H-pyrazol-4-yl)-2-(3-fluoro-5-((6-(2-methoxypropan-2-yl)quinolin-4-yl)oxy)pyridin-2-yl)acetamide] | 5.2 nM | –
CN1CCC(Oc2ccc3ncnc(Oc4cnc(CC(=O)Nc5cc(C(C)(C)C)[nH]n5)c(F)c4)c3c2)CC1 [Compound 57, N-(5-(tert-butyl)-1H-pyrazol-3-yl)-2-(3-fluoro-5-((6-((1-methylpiperidin-4-yl)oxy)quinazolin-4-yl)oxy)pyridin-2-yl)acetamide] | < 2.5 nM | –
Cc1c(Oc2ccnc3ccc(OC4CCN(C)CC4)cc23)ccc(CC(=O)Nc2cnn(C(C)(C)C)c2)c1F [Compound 103, N-(1-(tert-butyl)-1H-pyrazol-4-yl)-2-(2-fluoro-3-methyl-4-((6-((1-methylpiperidin-4-yl)oxy)quinolin-4-yl)oxy)phenyl)acetamide] | < 2.5 nM | –
Cc1c(Oc2ccnc3ccc(N4CCOC4=O)cc23)ccc(CC(=O)Nc2cnn(C(C)(C)C)c2)c1F [Compound 298, N-(1-(tert-butyl)-1H-pyrazol-4-yl)-2-(2-fluoro-3-methyl-4-((6-(2-oxooxazolidin-3-yl)quinolin-4-yl)oxy)phenyl) acetamide] | < 2.5 nM | –
CNS(=O)(=O)c1ccc2nccc(Oc3ccc(CC(=O)Nc4cnn(C(C)(C)C)c4)c(F)c3C)c2c1 [Compound 268, N-(1-(tert-butyl)-1H-pyrazol-4-yl)-2-(2-fluoro-3-methyl-4-((6-(N-methylsulfamoyl)quinolin-4-yl)oxy)phenyl)acetamide] | < 2.5 nM | –

Continued, values first:

IC50 (read-out: RIPK2 IC50) | IC50 (RIPK2 IC50 (nM)) | SMILES
< 2.5 nM | – | Cc1cc(CC(=O)Nc2cnn(C(C)(C)C)c2)c(F)cc1Oc1ccnc2ccc(CN3C[C@@H]4C[C@H]3CN4)cc12 [Compound 420, 2-(4-((6-(((1S,4S)-2,5-diazabicyclo[2.2.1]heptan-2-yl)methyl)quinolin-4-yl)oxy)-2-fluoro-5-methylphenyl)-N-(1-(tert-butyl)-1H-pyrazol-4-yl)acetamide]
< 2.5 nM | – | Cc1cc(CC(=O)Nc2cnn(C(C)(C)C)c2)c(F)cc1Oc1ccnc2ccc(C(=O)NC3CC3)cc12 [Compound 457, 4-(4-(2-((1-(tert-butyl)-1H-pyrazol-4-yl)amino)-2-oxoethyl)-5-fluoro-2-methylphenoxy)-N-cyclopropylquinoline-6-carboxamide]
< 2.5 nM | – | Cc1cc(CC(=O)Nc2cnn(C(C)(C)C)c2)c(F)cc1Oc1ccnc2ccc(C(=O)NC3CC(C#N)C3)cc12 (single isomer, unassigned) [Compound 396, 4-(4-(2-((1-(tert-butyl)-1H-pyrazol-4-yl)amino)-2-oxoethyl)-5-fluoro-2-methyl-phenoxy)-N-(-3-cyano-cyclobutyl) quinoline-6-carboxamide]
< 2.5 nM | – | Cc1cc(CC(=O)Nc2cnn(C(C)(C)C)c2)c(F)cc1Oc1ccnc2ccc(C(=O)N3C[C@H]4C[C@@H]3CN4)cc12 [Compound 453, 2-(4-((6-((1R,4R)-2,5-diazabicyclo[2.2.1]heptane-2-carbonyl)quinolin-4-yl)oxy)-2-fluoro-5-methylphenyl)-N-(1-(tert-butyl)-1H-pyrazol-4-yl)acetamide]
< 2.5 nM | – | Cc1cc(CC(=O)Nc2cnn(C(C)(C)C)c2)c(F)cc1Oc1ccnc2ccc(-c3ncccn3)cc12 [Compound 424, N-(1-(tert-butyl)-1H-pyrazol-4-yl)-2-(2-fluoro-5-methyl-4-((6-(pyrimidin-2-yl)quinolin-4-yl)oxy)phenyl)acetamide]
< 2.5 nM | – | COCCNC(=O)c1ccc2nccc(Oc3cc(F)c(CC(=O)Nc4cnn(C(C)(C)C)c4)cc3C)c2c1 [Compound 367, 4-(4-(2-((1-(tert-butyl)-1H-pyrazol-4-yl)amino)-2-oxoethyl)-5-fluoro-2-methyl-phenoxy)-N-(2-methoxy-ethyl) quinoline-6-carboxamide]
– | < 2.5 nM | COCCN(C)C(=O)c1ccc2nccc(Oc3cc(F)c(CC(=O)Nc4cnn(C(C)(C)C)c4)cc3C)c2c1 [Compound 368, 4-(4-(2-((1-(tert-butyl)-1H-pyrazol-4-yl)amino)-2-oxoethyl)-5-fluoro-2-methyl-phenoxy)-N-(2-methoxy-ethyl)-N-methyl-quinoline-6-carboxamide]
< 2.5 nM | – | Cc1cc(CC(=O)Nc2cnn(C(C)(C)C)c2)c(F)cc1Oc1ccnc2ccc(C(=O)N3CC(F)C3)cc12 [Compound 370, N-(1-(tert-butyl)-1H-pyrazol-4-yl)-2-(2-fluoro-4-((6-(3-fluoro-azetidine-1-carbonyl)quinolin-4-yl)oxy)-5-methyl-phenyl) acetamide]
< 2.5 nM | – | COC1CN(C(=O)c2ccc3nccc(Oc4cc(F)c(CC(=O)Nc5cnn(C(C)(C)C)c5)cc4C)c3c2)C1 [Compound 448, N-(1-(tert-butyl)-1H-pyrazol-4-yl)-2-(2-fluoro-4-((6-(3-methoxyazetidine-1-carbonyl)quinolin-4-yl)oxy)-5-methylphenyl)acetamide]
< 2.5 nM | – | Cc1cc(CC(=O)Nc2cnn(C(C)(C)C)c2)c(F)cc1Oc1ccnc2ccc(C(=O)N3CCC3)cc12 [Compound 369, 2-(4-((6-(azetidine-1-carbonyl)quinolin-4-yl)oxy)-2-fluoro-5-methyl-phenyl)-N-(1-(tert-butyl)-1H-pyrazol-4-yl)acetamide]
